From PMC6677754, “In silico design and optimization of selective membranolytic anticancer peptides” (Scientific Reports, 2019)
Peptide text beside a SMILES is read from it.

Assays:
human erythrocytes = assay: Hemolysis assay; assay type: cell-based; conditions: red cells of human, 1 h
Experimental: Human erythrocytes were freshly ordered at the Blutspende Zürich. Erythrocytes were washed 3 times with a […] phosphate buffered saline (PBS, Gibco, Thermo Fisher Scientific, Waltham, MA, USA) solution centrifuging at 800 g for 10 min or until the supernatant appeared clear to remove the blood plasma. A 5% v/v erythrocytes : PBS solution was prepared for direct use. For HC50 determination, peptides were dissolved in PBS at an intermediate concentration of 1 mM. A dilution series of the peptide from 200 to 6.25 μM was plated in a round-bottomed 96-well plate in triplicates, with a volume of 50 μL per well. PBS buffer and a solution of 0.1% Triton-X-100 (Fisher Chemical, Loughborough, UK) in PBS were employed as negative and positive controls, respectively. 50 μL of the 5% erythrocyte solution were added in each well and the plates were incubated at 37°C for 1 h. After this time, 100 μL PBS were added to each well and plates were centrifuged at 800 g for 10 min. 100 μL of the supernatant were transferred to a flat-bottomed 96-well plate and the absorbance was measured at 540 nm in a Tecan Infinity M1000 spectrophotometer plate reader. The hemolysis percentage was calculated, considering the absorbance values of the Triton and PBS wells as 100% and 0% hemolysis, respectively.
The resultant sigmoidal curves were analyzed with the drc22 R package using a log-logistic model with 3 fixed parameters to obtain the HC50 values. […]
NCI-60 screening procedure […]
Each peptide was tested in a 5-concentration assay, starting at 10^-4 M and diluting 10-fold to the lowest 10^-8 M concentration. The peptides were incubated for 48 h and the cell concentration was assayed by using the sulforhodamine B assay25 and optical density measurements. The growth inhibition (GI50) value24, measures the growth inhibitory power of the drug agent. The GI50 value is the concentration of the test drug for which the condition in Eq. S1 is met, where T is the optical density of the test well after a 48-h exposure to the peptide, T0 the optical density before applying the peptide drug and C the control optical density of a well where no peptide was applied.

[1] = test system: noncancer HDMEC primary cells (human dermal microvascular endothelial cells); assay: Cell viability assay (MTT); assay type: cell-based; conditions: Table S2; noncancer primary cells; MTT, 24 h; mean ± sd; N = 2 independent measurements with six technical replicates each (Figs S6-S8)
Experimental: 10% fetal bovine serum and 1% penicillin-streptomycin (Thermo Fisher Scientific, Waltham, MA, USA). The cultures were kept at 37°C in a 5% CO2 atmosphere incubator (Thermo Fisher Scientific, Waltham, MA, USA) and split every two to three days to new culture flasks. Cells no older than 20 passages were used for experiments.
For splitting, the cell culture media was aspirated, the cells were washed with 0.01 M phosphate buffered saline (PBS, Gibco, Thermo Fisher Scientific, Waltham, MA, USA) and trypsin-EDTA (trypsin - ethylene diamine tetraacetic acid, Fisher scientific, UK) was added to the cell layer to detach them from the flask surface. After incubation for 2 min at 37°C, cells were resuspended with an equal volume of DMEM media and centrifuged at 310 g for 5 min at 4°C. After removal of the supernatant the cells were resuspended in DMEM cell media and split into new cell culture flasks at a 1/3 to 1/5 ratio.
Determination of the anticancer peptides half effective concentration (EC50) was performed by a 3-(4,5-dimethylthiazol-2-yl)-2,5-diphenyltetrazolium bromide (MTT) assay, as described elsewhere21. Briefly, […] were seeded in each well of a 96-well plate and left to adhere and […]
sulfoxide (DMSO, Fisher Scientific, UK) at an intermediate concentration of 1 mM. The peptides were then diluted in a 2-fold dilution series starting at 100 μM with DMEM culture media. Cells were incubated with the peptide solutions for 24 h. After this time, the cell media was removed and the cells were incubated for 1 h with a 0.5 mg mL−1 MTT solution to allow enough time for formazan crystal formation (Sigma Aldrich, Steinheim, Germany). The supernatant was removed and 100 μL of DMSO were added into each well to resuspend the formazan crystals.
After manually shaking the plates to completely dissolve the crystals, the absorbance was measured at 540 nm in a Tecan Infinity M1000 spectrophotometer. The cell viability was determined based on the quantification of the color intensity in each culture well, considering the absorbance obtained by the control media without peptides as a 100% survival. The resultant sigmoidal curves were analyzed with the drc22 R package using a log-logistic model

[2] = test system: MCF7 breast adenocarcinoma cell line; assay: Cell viability assay (MTT); assay type: cell-based, human; conditions: Table S2, 24 h, mean ± sd, N = 2 independent measurements with six technical replicates each (Figs S6-S8)
Method in brief: (§1)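 Viability by MTT: 10^4 cells/well exposed 24 h to 2-fold peptide dilutions from 100 μM in DMEM, then 1 h with 0.5 mg mL−1 MTT; absorbance at 540 nm relative to peptide-free medium as 100% survival. EC50 from a 3-parameter log-logistic fit.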

[3] = test system: A549 lung adenocarcinoma cell line; assay: Cell viability assay (MTT); assay type: cell-based, human; conditions: Table S2; MTT, 24 h; mean ± sd; N = 2 independent measurements with six technical replicates each (Figs S6-S8); read-out: A549 EC50 /µM
Method in brief: as §1

| SMILES | Eryhtr. HC50 /µM (human erythrocytes) [µM] | EC50 [1] [µM] | EC50 [2] [µM] | EC50 [3] [µM] |
| --- | --- | --- | --- | --- |
| CC[C@H](C)[C@H](NC(=O)[C@H](CCCCN)NC(=O)[C@@H]1CCCN1C(=O)[C@H](Cc1c[nH]c2ccccc12)NC(=O)[C@@H](NC(=O)[C@H](CCC(=O)O)NC(=O)[C@H](Cc1c[nH]c2ccccc12)NC(=O)[C@H](Cc1ccccc1)NC(=O)[C@H](CCCCN)NC(=O)[C@H](CCCCN)NC(=O)[C@@H](NC(=O)[C@@H](NC(=O)[C@@H](NC(=O)[C@H](CCCCN)NC(=O)[C@H](CC(C)C)NC(=O)[C@H](CCC(N)=O)NC(=O)[C@H](CCCNC(=N)N)NC(=O)[C@@H](NC(=O)[C@H](CCCNC(=N)N)NC(=O)[C@@H](N)Cc1c[nH]cn1)[C@@H](C)CC)[C@@H](C)O)[C@@H](C)O)[C@@H](C)CC)[C@@H](C)CC)C(N)=O [Off10] (H-HRIRQLKTTIKKFWEIWPKI-NH2) | > 200 | 58.1 ± 0.3 | 56 ± 5 | 83 ± 11 |
| CC[C@H](C)[C@H](NC(=O)[C@H](CC(C)C)NC(=O)[C@@H](N)CCCNC(=N)N)C(=O)N[C@@H](CCCCN)C(=O)N[C@@H](CCCNC(=N)N)C(=O)N[C@H](C(=O)N[C@@H](CCCCN)C(=O)N[C@H](C(=O)N[C@@H](Cc1c[nH]c2ccccc12)C(=O)N[C@@H](Cc1ccc(O)cc1)C(=O)N[C@@H](CCCNC(=N)N)C(=O)N[C@@H](CCCCN)C(=O)N[C@@H](C)C(=O)N[C@@H](Cc1c[nH]c2ccccc12)C(=O)N[C@@H](CCCCN)C(=O)N[C@H](C(=O)N[C@H](C(=O)NCC(=O)N[C@@H](CCCCN)C(=O)N[C@@H](Cc1ccccc1)C(N)=O)C(C)C)C(C)C)[C@@H](C)O)[C@@H](C)CC [Off2.7] (H-RLIKRIKTWYRKAWKVVGKF-NH2) | > 200 | 23 ± 5 | 11.2 ± 0.7 | 15 ± 1 |
| CC[C@H](C)[C@H](NC(=O)[C@H](CC(C)C)NC(=O)[C@@H](N)CCC(N)=O)C(=O)N[C@@H](CCCCN)C(=O)N[C@@H](CCCCN)C(=O)N[C@@H](CC(C)C)C(=O)N[C@@H](CCCNC(=N)N)C(=O)N[C@H](C(=O)N[C@@H](Cc1c[nH]c2ccccc12)C(=O)N[C@@H](Cc1ccc(O)cc1)C(=O)N[C@@H](CCCNC(=N)N)C(=O)N[C@@H](CCCCN)C(=O)N[C@@H](C)C(=O)N[C@@H](Cc1c[nH]c2ccccc12)C(=O)N[C@@H](Cc1c[nH]cn1)C(=O)N[C@H](C(=O)N[C@@H](CC(C)C)C(=O)NCC(=O)N[C@@H](CCCCN)C(=O)N[C@@H](CC(C)C)C(N)=O)C(C)C)[C@@H](C)O [Off2.2.6] (H-QLIKKLRTWYRKAWHVLGKL-NH2) | > 200 | 9 ± 1 | 6.5 ± 0.2 | 10.6 ± 0.8 |
| CC(C)C[C@H](NC(=O)[C@H](CCCCN)NC(=O)CNC(=O)[C@H](Cc1ccccc1)NC(=O)[C@H](CC(C)C)NC(=O)[C@H](CCC(=O)O)NC(=O)[C@H](Cc1c[nH]c2ccccc12)NC(=O)[C@@H]1CCCN1C(=O)[C@H](CCCNC(=N)N)NC(=O)[C@H](CCCNC(=N)N)NC(=O)[C@H](Cc1ccc(O)cc1)NC(=O)[C@H](Cc1ccccc1)NC(=O)[C@@H]1CCCN1C(=O)[C@H](CCCNC(=N)N)NC(=O)[C@H](Cc1ccccc1)NC(=O)[C@H](CCCCN)NC(=O)[C@H](CCCCN)NC(=O)[C@H](Cc1ccccc1)NC(=O)[C@@H](NC(=O)[C@@H](N)CCC(N)=O)C(C)C)C(N)=O [Off2.1] (H-QVFKKFRPFYRRPWELFGKL-NH2) | > 200 | 173 ± 1 | 91 ± 2 | > 100 |
| CC[C@H](C)[C@H](NC(=O)[C@H](CCCCN)NC(=O)CNC(=O)[C@@H](NC(=O)[C@H](CC(C)C)NC(=O)[C@H](Cc1c[nH]cn1)NC(=O)[C@H](Cc1c[nH]c2ccccc12)NC(=O)[C@H](C)NC(=O)[C@H](CCCCN)NC(=O)[C@H](CCCCN)NC(=O)[C@@H](NC(=O)[C@H](Cc1c[nH]c2ccccc12)NC(=O)[C@@H](NC(=O)[C@H](CCCNC(=N)N)NC(=O)[C@@H](NC(=O)[C@H](CCCCN)NC(=O)[C@H](CCCCN)NC(=O)[C@@H](NC(=O)[C@@H](NC(=O)[C@@H](N)CCC(N)=O)[C@@H](C)CC)[C@@H](C)CC)C(C)C)[C@@H](C)O)[C@@H](C)CC)[C@@H](C)CC)C(N)=O [Off2.2.7] (H-QIIKKVRTWIKKAWHLIGKI-NH2) | > 100 | 17 ± 1 | 8 ± 1 | 12 ± 2 |
| CC[C@H](C)[C@H](NC(=O)[C@@H](NC(=O)[C@H](Cc1c[nH]cn1)NC(=O)[C@H](Cc1c[nH]c2ccccc12)NC(=O)[C@H](C)NC(=O)[C@H](CCCNC(=N)N)NC(=O)[C@H](CCC(=O)O)NC(=O)[C@H](Cc1ccc(O)cc1)NC(=O)[C@H](Cc1ccc(O)cc1)NC(=O)[C@@H](NC(=O)[C@H](Cc1c[nH]cn1)NC(=O)[C@H](CC(C)C)NC(=O)[C@H](Cc1c[nH]cn1)NC(=O)[C@H](CCCCN)NC(=O)[C@H](CC(C)C)NC(=O)[C@H](Cc1ccccc1)NC(=O)[C@@H](N)CCCNC(=N)N)[C@@H](C)O)C(C)C)C(=O)NCC(=O)N[C@@H](Cc1c[nH]cn1)C(=O)N[C@@H](CC(C)C)C(N)=O [Off2.8] (H-RFLKHLHTYYERAWHVIGHL-NH2) | > 200 | 2 ± 2 | > 100 | > 100 |
| CC[C@H](C)[C@H](NC(=O)[C@H](Cc1c[nH]cn1)NC(=O)[C@H](Cc1c[nH]c2ccccc12)NC(=O)[C@H](C)NC(=O)[C@H](CCCCN)NC(=O)[C@H](CCCNC(=N)N)NC(=O)[C@H](CC(C)C)NC(=O)[C@H](Cc1c[nH]c2ccccc12)NC(=O)[C@@H](NC(=O)[C@H](CCCNC(=N)N)NC(=O)[C@H](Cc1c[nH]c2ccccc12)NC(=O)[C@H](CCCCN)NC(=O)[C@H](CCCCN)NC(=O)[C@H](CC(C)C)NC(=O)[C@H](CC(C)C)NC(=O)[C@@H](N)Cc1c[nH]cn1)[C@@H](C)O)C(=O)N[C@H](C(=O)NCC(=O)N[C@@H](CCCCN)C(=O)N[C@H](C(N)=O)C(C)C)C(C)C [Off2.2.3] (H-HLLKKWRTWLRKAWHIVGKV-NH2) | 59 ± 6 | 6.1 ± 0.5 | 7 ± 1 | 9 ± 1 |
| CC[C@H](C)[C@H](NC(=O)[C@@H](N)CCC(N)=O)C(=O)N[C@@H](Cc1ccc(O)cc1)C(=O)N[C@@H](CCCCN)C(=O)N[C@@H](CCCCN)C(=O)N[C@@H](Cc1ccc(O)cc1)C(=O)N[C@@H](CCCNC(=N)N)C(=O)N[C@H](C(=O)N[C@@H](Cc1c[nH]c2ccccc12)C(=O)N[C@@H](Cc1ccc(O)cc1)C(=O)N[C@@H](CCCNC(=N)N)C(=O)N[C@@H](CCCCN)C(=O)N[C@@H](C)C(=O)N[C@@H](Cc1c[nH]c2ccccc12)C(=O)N[C@@H](CCCCN)C(=O)N[C@H](C(=O)N[C@@H](CC(C)C)C(=O)NCC(=O)N[C@@H](CCCCN)C(=O)N[C@H](C(N)=O)C(C)C)C(C)C)[C@@H](C)O [Off2.2.10] (H-QIYKKYRTWYRKAWKVLGKV-NH2) | > 200 | 71 ± 12 | 16.9 ± 0.8 | 36 ± 7 |
